The target of data set [1] is T1, human-KOR (Homo sapiens, UniProt P41145). As to the kind of experiment: Radioligand competition binding, [3H]-DPN, HEK293 membranes, KOR. Also on record: expressed in transfected cells. How it is done: (§1) All synthesized compounds were tested in vitro by radioligand competition binding using [^3H]-diprenorphine ([^3H]-DPN) to measure the affinity for opioid receptor subtypes in membranes from HEK293 cells stably expressing either MOR, DOR, or KOR, as previously described.
(§2) Confluent monolayers of HEK293 (human embryonic kidney 293) cells stably expressing rat-MOR, rat-DOR, or human-KOR were harvested, collected by centrifugation at 1500 rpm for 5 min, and washed once with phosphate-buffered saline (PBS) at pH 7.5. Membranes from cell pellets were carried out as described by Georgoussi and Zioudrou (1993) and Papakonstantinou et al. (2015). Briefly, cell pellets were resuspended in ice-cold membrane buffer (10 mM Tris-HCl, pH 7.5 and 0.1 mM EDTA), homogenized, and centrifuged at 2,000 g for 3 min at 4 °C. Supernatants were further centrifuged at 45,000 rpm for 30 min at 4 °C. The membrane pellet was resuspended in ice-cold membrane buffer at a protein concentration of approximately 1 mg/mL and stored in aliquots at −70 °C. Protein concentration was determined according to Bradford assay.
(§3) In the experiments designed to define compound affinity and selectivity for MOR, DOR, and KOR, membranes expressing each of these opioid receptors ([…]) were incubated at 30 °C for 45 min in buffer containing 50 mM Tris-HCl, pH 7.5, 100 mM NaCl, and 10 mM MgCl2 as described by Georgoussi et al. […] The ability of compounds 10–16 to displace [^3H]-DPN (3.75 nM) binding to the opioid receptors was assessed as described by Morou And Georgoussi (2005). Non-specific binding was measured in the presence of […] Naloxone. The reaction was stopped by rapid filtration and three washes in ice-cold 50 mM Tris-HCl, pH 7.4, through GF/C filters (Whatman, Maidstone, UK) using an automated cell harvester (Brandel Inc., Gaithersburg, MD, USA). The radioactivity was measured by liquid scintillation counting (Liquid Scintillation Analyzer, Packard).
(§4) Analysis of the binding data was performed using the Origin 7.5 software (OriginLab Corporation, Northampton, MA, USA). In calcium mobilization experiments, data were analyzed by non-linear curve fitting equation, using GraphPad 5.0 software. […] Ligand efficacy was expressed as intrinsic activity (α), calculated as the ratio between the Emax of the ligand and that of the respective standards. Calcium mobilization data were expressed as FIU (fluorescence intensity units) in percent, over the baseline. Agonist potencies are given as pEC50 (the negative logarithm to base 10 of the molar concentration of an agonist that produces 50% of the maximal possible effect, Emax). Concentration response curves to agonists were fitted with the following equation: Effect = baseline + (Emax − baseline)/(1+10^(LogEC50 − X) ∗ HillSlope) where X is the agonist concentration.

Data set [2] deals with T1, human-KOR. As to the kind of experiment: Calcium mobilization assay, CHO-KOR cells expressing Gαqi5. It counts as cell-based. Also on record: expressed in transfected cells; gift of Dr. Larry Toll (SRI International); infected with a retrovirus for Gαqi5. The conditions noted are these: for functional profile at KOR: calcium mobilization; for KOR pEC50 (CL95%): agonist mode, crc incomplete = incomplete concentration response curve at 10 μM; for KOR pEC50 (CL95%) / KOR pKB (CL95%): Inactive = inactive at 10 μM; for KOR pKB (CL95%): antagonist mode, dynorphin A as agonist. As for the experimental part: (§5) The pharmacological characterization of LP1 derivatives 2 and 10–16 was performed by calcium mobilization assay (Table 2). This procedure was preliminarily validated through a series of experiments where the effects of DPDPE, dermorphin, and dynorphin A were assessed in CHO cells expressing the human recombinant opioid receptors and Gαqi5 or GαqG66Di5 chimeric proteins.
(§6) Chinese hamster ovary (CHO) cells expressing the recombinant human MOR and KOR (CHO^MOR and CHO^KOR) were kindly provided by Dr. Larry Toll (SRI International, Menlo Park, CA, USA), and CHO cells expressing the recombinant human DOR (CHO^DOR) were supplied by Dr. Eva Varga (Department of Medical Pharmacology, The University of Arizona, Tucson, AZ, USA). CHO cells lines permanently coexpressing the opioid receptors and the C-terminally modified Gαqi5 were prepared by infecting the CHO lines described above with a recombinant retrovirus expressing the chimeric α subunit and the hygromycin resistance gene. Similarly, CHO cells lines permanently coexpressing DOR and the C-terminally modified GαqG66Di5 were prepared by infecting the CHO lines described above with a recombinant retrovirus expressing the chimeric α subunit and the hygromycin resistance gene. Polyclonal cell lines were generated using the pantropic retroviral expression system form BD-Clontech, as described previously. Stable lines were selected under hygromycin B (100 μg/mL) and geneticin (600 μg/mL) for 2–3 weeks after the infection.
(§7) CHO cells, expressing human opioid receptors and the Gαqi5 protein, and CHODOR, expressing the GαqG66Di5 protein, were maintained in culture medium consisting of Dulbecco minimum essential medium (DMEM) and Ham F-12 (1:1) (50/50) supplemented with 10% fetal calf serum (FCS), L-glutamine (2 mM), geneticin (200 μg/mL; G418), hygromycin B (100 μg/mL) at 37 °C in 5% CO2 humidified air. When confluence was reached (3–4 days), cells were subcultured as required using trypsin/EDTA, and used for experimentation. The different cell lines were seeded at a density of […] into black 96-well, clear-bottomed plates. After 24 h incubation, the cells were loaded with medium supplemented with 2.5 mM probenecid, 3 μM of the calcium sensitive fluorescent dye Fluo-4 AM, and 0.01% pluronic acid, for 30 min at 37 °C. Afterwards, the loading solution was aspirated and 100 μL/well of assay buffer—HBSS supplemented with 20 mM HEPES, 2.5 mM probenecid and 500 μM Brilliant Black (Aldrich, St. Louis, MO, USA)—was added. Serial dilutions of ligands for experimental use were made in HBSS/HEPES (20 mM) buffer (containing 0.005% BSA fraction V). After placing both plates (cell culture and compound plate) into the FlexStation II (Molecular Device, Union City, San Jose, CA 94587, USA), fluorescence changes were measured at room temperature. Online additions were carried out in a volume of 50 μL/well. Antagonists were incubated 15 min before the addition of the agonist. Maximum change in fluorescence, expressed in percent of baseline fluorescence, was used to determine agonist response.
as §4, with “concentration. […]” for “concentration.”

Data set [3] addresses T2, recombinant human MOR (Homo sapiens, UniProt P35372).
T2 construct: expressed in transfected cells; gift of Dr. Larry Toll (SRI International); infected with a retrovirus for Gαqi5
As to the kind of experiment: Calcium mobilization assay, CHO-MOR cells expressing Gαqi5. It counts as cell-based. The conditions noted are these: for MOR pEC50 (CL95%): agonist mode, Inactive = inactive at 10 μM, crc incomplete = incomplete concentration response curve at 10 μM; for functional profile at MOR: calcium mobilization; for intrinsic activity (α) at MOR: ratio of Emax of ligand to that of the standard. (In general: Calcium flux is commonly read through the fluorescence of an indicator in the cells.)

In data set [4] the target is T3, rat-MOR (Rattus norvegicus, UniProt P33535).
T3 construct: expressed in transfected cells
As to the kind of experiment: Radioligand competition binding, [3H]-DPN, HEK293 membranes, MOR. As for the experimental part: as §1, §2, §3, §4
Background: Loss of bound radioactivity is the signal in a displacement assay; it reports binding, not function.

The target of data set [5] is T4, recombinant human DOR (Homo sapiens, UniProt P41143).
T4 construct: expressed in transfected cells; supplied by Dr. Eva Varga (University of Arizona); infected with a retrovirus for GαqG66Di5
As to the kind of experiment: Calcium mobilization assay, CHO-DOR cells expressing GαqG66Di5. It counts as cell-based. The conditions noted are these: for DOR pEC50 (CL95%): agonist mode, crc incomplete = incomplete concentration response curve at 10 μM; for DOR pEC50 (CL95%) / DOR pKB (CL95%): Inactive = inactive at 10 μM; for DOR pKB (CL95%): antagonist mode, DPDPE as agonist; for functional profile at DOR: calcium mobilization. As for the experimental part:
as §5, §6, §7
as §4, with “concentration. […]” for “concentration.”

Data set [6] addresses T5, rat-DOR (Rattus norvegicus, UniProt P33533).
T5 construct: expressed in transfected cells
As to the kind of experiment: Radioligand competition binding, [3H]-DPN, HEK293 membranes, DOR. As for the experimental part:
as §1, §2, §3, §4

Entries after “also recorded” stand apart in the source; their conditions may differ. Where two headings read alike, the source gives them in different places.

Take `C[C@H]1[C@H]2Cc3ccc(O)cc3[C@]1(C)CCN2CCC(=O)N1CCCc2ccccc21` [Compound 15, 1-(3,4-Dihydroquinolin-1(2H)-yl)-3-[(2R,6R,11R)-8-hydroxy-6,11-dimethyl-1,4,5,6-tetrahydro-2,6-methano-3-benzazocin-3(2H)-yl]-propan-1-one]: the melting point is 92.2 °C (dec.). Further, the Ki in data set [1] ([3H]-DPN displacement, means ± SEM of three experiments in duplicate, read-out: Ki (μM) ± SEM KOR) worked out at 0.2 ± 0.02 µM. The “functional profile at KOR” value in data set [2] is listed as “partial agonist of KOR”. Besides, in data set [2] (ratio of Emax of ligand to that of the standard), the “intrinsic activity (α) at KOR” value was found to be 0.32 ± 0.016. Also, in data set [2] (read-out: KOR pEC50 (CL95%) (converted)), the EC50 was 257 nM. In data set [3], the “MOR pEC50 (CL95%)” value is “Inactive”. In addition, the Ki in data set [4] ([3H]-DPN displacement, means ± SEM of three experiments in duplicate, read-out: Ki (μM) ± SEM MOR) stood at 0.36 ± 0.023 µM. In data set [5], the “DOR pEC50 (CL95%)” value is recorded as “Inactive” and the “DOR pKB (CL95%)” value was “Inactive”.
Turning to `Cc1ccc(NC(=O)CCN2CC[C@@]3(C)c4cc(O)ccc4C[C@@H]2[C@@H]3C)cc1` [Compound 11, 3-[(2R,6R,11R)-8-Hydroxy-6,11-dimethyl-1,4,5,6-tetrahydro-2,6-methano-3-benzazocin-3(2H)-yl]-N-(4-methylphenyl)propanamide], affinity in data set [1] was put at a Ki of 1.01 ± 0.11 µM. Besides, in data set [2], the Kb was 1410 nM, the “KOR pEC50 (CL95%)” value is “Inactive”, the “KOR pKB (CL95%)” value is “able to inhibit the stimulatory effects induced by dynorphin A” and the “functional profile at KOR” value is reported as “DOR/KOR antagonists”. Besides, in data set [3], the EC50 was 1410 nM, the “functional profile at MOR” value is listed as “MOR partial agonists” and the “intrinsic activity (α) at MOR” value is on record as 0.23 ± 0.011. The molecule further gave a Ki in data set [4] of 0.24 ± 0.015 µM. The Ki in data set [6] was found to be 410 ± 23 nM. For the same molecule, in data set [5], the Kb was 1480 nM, the “DOR pEC50 (CL95%)” value was “Inactive” and the “functional profile at DOR” value is on record as “DOR/KOR antagonists”.
Turning to `C[C@H]1[C@H]2Cc3ccc(O)cc3[C@]1(C)CCN2CCC(=O)N(c1ccccc1)c1ccccc1` [Compound 16, 3-[(2R,6R,11R)-8-Hydroxy-6,11-dimethyl-1,4,5,6-tetrahydro-2,6-methano-3-benzazocin-3(2H)-yl]-N,N-diphenylpropanamide], the melting point was 173.5 °C (dec.). For the same molecule, in data set [1], affinity was put at a Ki of 0.2 ± 0.03 µM. In addition, in data set [2], the Kb is 776 nM, the “KOR pEC50 (CL95%)” value is reported as “Inactive”, the “KOR pKB (CL95%)” value is recorded as “able to inhibit the stimulatory effects induced by dynorphin A” and the “functional profile at KOR” value was “MOR/KOR antagonist”. Also, in data set [3], the Kb was 759 nM, the “MOR pEC50 (CL95%)” value is reported as “Inactive” and the “functional profile at MOR” value is “MOR/KOR antagonist”. Affinity in data set [4] was put at a Ki of 0.17 ± 0.013 µM. Moreover, in data set [5], the “DOR pEC50 (CL95%)” value is reported as “Inactive” and the “DOR pKB (CL95%)” value is given as “Inactive”.
With `C[C@H]1[C@H]2Cc3ccc(O)cc3[C@]1(C)CCN2CCC(=O)Nc1ccc(F)cc1` [Compound 10, N-(4-Fluorophenyl)-3-[(2R,6R,11R)-8-hydroxy-6,11-dimethyl-1,4,5,6-tetrahydro-2,6-methano-3-benzazocin-3(2H)-yl]propanamide], in data set [1], the Ki is 4.8 ± 0.95 µM. Besides, the “KOR pEC50 (CL95%)” value in data set [2] is “crc incomplete”. In data set [3], the EC50 was 2140 nM, the “functional profile at MOR” value was “MOR partial agonists” and the “intrinsic activity (α) at MOR” value came out at 0.30 ± 0.015. For the same molecule, the Ki in data set [4] was determined as 0.28 ± 0.013 µM. The molecule also showed an inhibitory constant (Ki) in data set [6] of 920 ± 120 nM. For the same molecule, in data set [5], the “DOR pEC50 (CL95%)” value is “able to stimulate calcium mobilization, but only at the higher concentration tested; also recorded: crc incomplete” and the “DOR pKB (CL95%)” value was “Inactive”.
For `C[C@H]1[C@H]2Cc3ccc(O)cc3[C@]1(C)CCN2CCC(=O)Nc1ccc(C#N)cc1` [Compound 12, N-(4-Cyanophenyl)-3-[(2R,6R,11R)-8-hydroxy-6,11-dimethyl-1,4,5,6-tetrahydro-2,6-methano-3-benzazocin-3(2H)-yl]propanamide], in data set [1], the Ki turned out to be 0.85 ± 0.18 µM. In addition, in data set [2], the Kb is 1260 nM, the “KOR pEC50 (CL95%)” value is “Inactive”, the “KOR pKB (CL95%)” value is “able to inhibit the stimulatory effects induced by dynorphin A” and the “functional profile at KOR” value is recorded as “DOR/KOR antagonists”. Also, in data set [3], the EC50 was 1020 nM, the “functional profile at MOR” value is on record as “MOR partial agonists” and the “intrinsic activity (α) at MOR” value is 0.34 ± 0.017. Besides, the affinity in data set [4], expressed as Ki, was 0.21 ± 0.024 µM. Moreover, the inhibitory constant (Ki) in data set [6] stood at 380 ± 34 nM. In data set [5], the Kb is 1510 nM, the “DOR pEC50 (CL95%)” value is recorded as “Inactive” and the “functional profile at DOR” value is reported as “DOR/KOR antagonists”.

By Ki is commonly meant a dissociation constant, usually derived from enzyme kinetics or from competition with a known ligand. The term melting point denotes the temperature of the solid-liquid transition.

The values above are taken from paper PMC6027146, “Synthesis and Structure-Activity Relationships of (−)-cis-N-Normetazocine-Based LP1 Derivatives” (Pharmaceuticals, 2018).
